# In ChEMBL document CHEMBL1201862, “PubChem BioAssay data set” (2004):
#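 96-well plates; 48 h exposure; 5 concentrations. Endpoints by linear interpolation between flanking doses. Not reached: highest tested concentration assigned. Here, GI50 denotes the concentration required for 50% inhibition of growth.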 Calls of active or inactive are those of the source. Rule as the data show it: active = GI50 up to about 1.1 µM and inactive = higher.
# How the values were obtained:
# Experiment in all cases: DTP human tumour cell line panel, 48 h
# UO-31 = test system: UO-31
# KM12 = test system: KM12
# SR = test system: SR
# SN12C = test system: SN12C
# NCI-H226 = test system: NCI-H226
# HCT-15 = test system: HCT-15
# MOLT-4 = test system: MOLT-4
# LOX IMVI = test system: LOX IMVI
# CAKI-1 = test system: CAKI-1
# ACHN = test system: ACHN
# MDA-N = test system: MDA-N
# RXF 393 = test system: RXF 393
# NCI-H23 = test system: NCI-H23
# EKVX = test system: EKVX
# CCRF-CEM = test system: CCRF-CEM
# SF-268 = test system: SF-268
# SF-295 = test system: SF-295
# M14 = test system: M14
# HCC 2998 = test system: HCC 2998
# PC-3 = test system: PC-3
# NCI/ADR-RES = test system: NCI/ADR-RES
# MDA-MB-231 = test system: MDA-MB-231
# SNB-19 = test system: SNB-19
# HL-60 = test system: HL-60
# A498 = test system: A498
# SNB-75 = test system: SNB-75
# HOP-62 = test system: HOP-62
# SK-MEL-2 = test system: SK-MEL-2
# Hs-578T = test system: Hs-578T
# UACC-257 = test system: UACC-257
# DU-145 = test system: DU-145
# SF-539 = test system: SF-539
# UACC-62 = test system: UACC-62
# OVCAR-5 = test system: OVCAR-5
# OVCAR-8 = test system: OVCAR-8
# T47D = test system: T47D
# MDA-MB-435 = test system: MDA-MB-435
# HCT-116 = test system: HCT-116
# NCI-H522 = test system: NCI-H522
# SW-620 = test system: SW-620
# TK-10 = test system: TK-10
# SK-MEL-5 = test system: SK-MEL-5
# HOP-92 = test system: HOP-92
# MCF7 = test system: MCF7
# HT-29 = test system: HT-29
# SK-MEL-28 = test system: SK-MEL-28
# OVCAR-3 = test system: OVCAR-3
# 786-0 = test system: 786-0
# SK-OV-3 = test system: SK-OV-3
# NCI-H460 = test system: NCI-H460
# IGROV-1 = test system: IGROV-1
# K562 = test system: K562
# COLO 205 = test system: COLO 205
# A549 = test system: A549
# OVCAR-4 = test system: OVCAR-4
# Malme-3M = test system: Malme-3M
# RPMI-8226 = test system: RPMI-8226
structure (smiles),measurement,setting,value
CN(CCc1ccccn1)C(=S)N/N=C/c1ccccn1,GI50,UO-31,139 nM (active)
same,GI50,KM12,71.9 nM (active)
same,GI50,SR,< 10 nM (active)
same,GI50,SN12C,111 nM (active)
same,GI50,NCI-H226,51.6 nM (active)
same,GI50,HCT-15,14.8 nM
same,GI50,MOLT-4,< 10 nM (active)
same,GI50,LOX IMVI,70 nM (active)
same,GI50,CAKI-1,< 10 nM (active)
same,GI50,ACHN,36.6 nM (active)
same,GI50,MDA-N,551 nM (active)
same,GI50,RXF 393,126 nM (active)
same,GI50,NCI-H23,< 27.5 nM (active)
same,GI50,EKVX,102 nM (active)
same,GI50,CCRF-CEM,< 10 nM (active)
same,GI50,SF-268,248 nM (active)
same,GI50,SF-295,147 nM (active)
same,GI50,M14,< 22.6 nM (active)
same,GI50,HCC 2998,230 nM (active)
same,GI50,PC-3,45.6 nM (active)
same,GI50,NCI/ADR-RES,< 20.1 nM (active)
same,GI50,MDA-MB-231,< 10 nM (active)
same,GI50,SNB-19,4690 nM (inactive)
same,GI50,HL-60,< 10 nM (active)
same,GI50,A498,19.4 nM (active)
same,GI50,SNB-75,7500 nM (inactive)
same,GI50,HOP-62,33.6 nM (active)
same,GI50,SK-MEL-2,16.8 nM (active)
same,GI50,Hs-578T,20000 nM (inactive)
same,GI50,UACC-257,< 21.3 nM (active)
same,GI50,DU-145,298 nM (active)
same,GI50,SF-539,93.5 nM (active)
same,GI50,UACC-62,195 nM (active)
same,GI50,OVCAR-5,23.8 nM (active)
same,GI50,OVCAR-8,30.8 nM (active)
same,GI50,T47D,< 10 nM (active)
same,GI50,MDA-MB-435,678 nM (active)
same,GI50,HCT-116,< 10 nM (active)
same,GI50,NCI-H522,< 10 nM (active)
same,GI50,SW-620,91.6 nM (active)
same,GI50,TK-10,43 nM (active)
same,GI50,SK-MEL-5,110 nM (active)
same,GI50,HOP-92,105 nM (active)
same,GI50,MCF7,< 10 nM (active)
same,GI50,HT-29,< 47.3 nM (active)
same,GI50,SK-MEL-28,442 nM (active)
same,GI50,OVCAR-3,< 10 nM (active)
same,GI50,786-0,49.5 nM (active)
same,GI50,SK-OV-3,376 nM (active)
same,GI50,NCI-H460,299 nM (active)
same,GI50,IGROV-1,18.4 nM (active)
same,GI50,K562,< 10 nM (active)
same,GI50,COLO 205,< 10 nM (active)
same,GI50,A549,285 nM (active)
same,GI50,OVCAR-4,112 nM (active)
same,GI50,Malme-3M,182 nM (active)
same,GI50,RPMI-8226,< 10 nM (active)
